Values joined by “and” are separate entries in the source; they are usually repeats but may differ in a detail not shown here. Equal entries are not always repeated. Toxic doses and inconclusive results are not listed. Rule for the calls: active = survival T/C of 150% or more; inactive = T/C below 125% in these data.
System: P388 leukemia ip, CD2F1 mice, survival T/C
Assay: NCI In Vivo Anticancer Drug Screen. Data for tumor model P388 Leukemia (intraperitoneal) in CD2F1 (CDF1) mice
Conditions: endpoint: median survival time, higher = longer survival
Summary of the method: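 Mice carrying the transplanted tumor received test compound or vehicle. Survival was recorded in each group, and the value is the treated-group measurement divided by that of the vehicle-treated control group.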

[1] = dose: 50.0 mg/kg/injection, schedule: Q01DX005 (ip), vehicle: saline with Tween-80
[2] = dose: 100.0 mg/kg/injection, schedule: Q01DX005 (ip), vehicle: saline with Tween-80
[3] = dose: 200.0 mg/kg/injection, schedule: Q01DX005 (ip), vehicle: saline with Tween-80
[4] = dose: 60.0 mg/kg/injection, schedule: Q01DX005 (ip), vehicle: Klucel (hydroxypropylcellulose) (HPC)
[5] = dose: 120.0 mg/kg/injection, schedule: Q01DX005 (ip), vehicle: Klucel (hydroxypropylcellulose) (HPC)
[6] = dose: 240.0 mg/kg/injection, schedule: Q01DX005 (ip), vehicle: Klucel (hydroxypropylcellulose) (HPC)
[7] = dose: 100.0 mg/kg/injection, schedule: Q01DX009 (ip), vehicle: saline with Tween-80
[8] = dose: 200.0 mg/kg/injection, schedule: Q01DX009 (ip), vehicle: saline with Tween-80

Measured: T/C

CC1NC(=O)N(C(C)(C)C)C1=O (centres undefined)
inactive: [1] 111 % of control | dose: 50.0 mg/kg/injection, schedule: Q01DX005 (ip), vehicle: saline 101 % of control | [2] 111 % of control | dose: 100.0 mg/kg/injection, schedule: Q01DX005 (ip), vehicle: saline 100 % of control | [3] 120 % of control | dose: 200.0 mg/kg/injection, schedule: Q01DX005 (ip), vehicle: saline 102 % of control and 107 % of control

COc1cccc2c1C(=O)c1c(cc3c(c1O)[C@@H](OC1CC(NC(=O)c4ccc(N=[N+]=[N-])cc4)C(O)C(C)O1)C[C@](O)(C(C)=O)C3)C2=O (some centres undefined)
inactive: dose: 6.25 mg/kg/injection, schedule: Q04DX003 (ip), vehicle: olive oil, sesame oil, peanut oil 100 % of control | dose: 12.5 mg/kg/injection, schedule: Q04DX003 (ip), vehicle: olive oil, sesame oil, peanut oil 97 % of control | dose: 25.0 mg/kg/injection, schedule: Q04DX003 (ip), vehicle: olive oil, sesame oil, peanut oil 100 % of control | dose: 50.0 mg/kg/injection, schedule: Q04DX003 (ip), vehicle: olive oil, sesame oil, peanut oil 112 % of control

c1csc(-c2cc(-c3cc(-c4cccs4)[nH]n3)n[nH]2)c1
inactive: [4] 102 % of control | [5] 96 % of control | [6] 90 % of control

FC(F)(F)c1cc([C@H]2[C@@H]3CCCCN32)c2cccc(C(F)(F)F)c2n1 (some centres undefined)
inactive: dose: 12.5 mg/kg/injection, schedule: Q04DX003 (ip), vehicle: distilled water + Tween-80 93 % of control | dose: 25.0 mg/kg/injection, schedule: Q04DX003 (ip), vehicle: distilled water + Tween-80 97 % of control | dose: 50.0 mg/kg/injection, schedule: Q04DX003 (ip), vehicle: distilled water + Tween-80 96 % of control | dose: 100.0 mg/kg/injection, schedule: Q04DX003 (ip), vehicle: distilled water + Tween-80 95 % of control | dose: 200.0 mg/kg/injection, schedule: Q04DX003 (ip), vehicle: distilled water + Tween-80 99 % of control | dose: 400.0 mg/kg/injection, schedule: Q04DX003 (ip), vehicle: distilled water + Tween-80 103 % of control

Cc1ccc(C(=Nc2ccccc2)c2ccccc2C)cc1
inactive: dose: 50.0 mg/kg/injection, schedule: Q04DX002 (ip), vehicle: saline with Tween-80 91 % of control and 95 % of control | dose: 100.0 mg/kg/injection, schedule: Q04DX002 (ip), vehicle: saline with Tween-80 104 % of control and 86 % of control | dose: 200.0 mg/kg/injection, schedule: Q04DX002 (ip), vehicle: saline with Tween-80 87 % of control and 93 % of control | dose: 400.0 mg/kg/injection, schedule: Q04DX002 (ip), vehicle: saline with Tween-80 86 % of control and 95 % of control

CN(C)CCSc1n[nH]c(=O)[nH]c1=O
inactive: dose: 25.0 mg/kg/injection, schedule: Q01DX005 (ip), vehicle: distilled water + alcohol 101 % of control | dose: 50.0 mg/kg/injection, schedule: Q01DX005 (ip), vehicle: distilled water + alcohol 95 % of control | dose: 100.0 mg/kg/injection, schedule: Q01DX005 (ip), vehicle: distilled water + alcohol 100 % of control | dose: 200.0 mg/kg/injection, schedule: Q01DX005 (ip), vehicle: distilled water + alcohol 96 % of control

CC(C)CCCCCCCCCCCCC(=O)NCC(=O)NC1C(C)OC(Nc2ncnc3c2ncn3C)C(O)C1O (centres undefined)
inactive: dose: 1.56 mg/kg/injection, schedule: Q01DX009 (ip), vehicle: distilled water + Tween-80 98 % of control | dose: 3.13 mg/kg/injection, schedule: Q01DX009 (ip), vehicle: distilled water + Tween-80 95 % of control | dose: 6.25 mg/kg/injection, schedule: Q01DX009 (ip), vehicle: distilled water + Tween-80 101 % of control | dose: 12.5 mg/kg/injection, schedule: Q01DX009 (ip), vehicle: distilled water + Tween-80 98 % of control | dose: 25.0 mg/kg/injection, schedule: Q01DX009 (ip), vehicle: distilled water + Tween-80 90 % of control | dose: 50.0 mg/kg/injection, schedule: Q01DX009 (ip), vehicle: distilled water + Tween-80 91 % of control

N/N=C(/c1ccc(Cl)cc1)N1CCOCC1
inactive: dose: 100.0 mg/kg/injection, schedule: Q04DX003 (ip), vehicle: saline with Tween-80 103 % of control | dose: 200.0 mg/kg/injection, schedule: Q04DX003 (ip), vehicle: saline with Tween-80 103 % of control | dose: 400.0 mg/kg/injection, schedule: Q04DX003 (ip), vehicle: saline with Tween-80 98 % of control

CC(C)CC1NC(=O)N(CCN(C)C)C1=O (centres undefined)
inactive: [1] 100 % of control | [2] 106 % of control | [3] 100 % of control

C[N+]1(C)CC[N+](C)(C)CC1
inactive: dose: 25.0 mg/kg/injection, schedule: Q01DX009 (ip), vehicle: Klucel (hydroxypropylcellulose) (HPC) 103 % of control | dose: 50.0 mg/kg/injection, schedule: Q01DX009 (ip), vehicle: Klucel (hydroxypropylcellulose) (HPC) 103 % of control | dose: 100.0 mg/kg/injection, schedule: Q01DX009 (ip), vehicle: Klucel (hydroxypropylcellulose) (HPC) 100 % of control | dose: 200.0 mg/kg/injection, schedule: Q01DX009 (ip), vehicle: Klucel (hydroxypropylcellulose) (HPC) 110 % of control

OCNC(=S)c1c(Cl)cccc1Cl
inactive: dose: 25.0 mg/kg/injection, schedule: Q01DX009 (ip), vehicle: saline with Tween-80 111 % of control | dose: 50.0 mg/kg/injection, schedule: Q01DX009 (ip), vehicle: saline with Tween-80 111 % of control | [7] 109 % of control | [8] 100 % of control

Cc1ccc2[nH]c(C)c(C(=O)c3cccnc3)c2c1
inactive: dose: 100.0 mg/kg/injection, schedule: Q04DX003 (ip), vehicle: Klucel (hydroxypropylcellulose) (HPC) 92 % of control | dose: 200.0 mg/kg/injection, schedule: Q04DX003 (ip), vehicle: Klucel (hydroxypropylcellulose) (HPC) 91 % of control | dose: 400.0 mg/kg/injection, schedule: Q04DX003 (ip), vehicle: Klucel (hydroxypropylcellulose) (HPC) 110 % of control

N#Cc1ccc(C(N)=O)c(C(N)=O)c1
inactive: [1] 98 % of control | [2] 102 % of control | [3] 93 % of control

O=[N+]([O-])c1ccc(N=Nc2ccc(NNc3ccc([N+](=O)[O-])cn3)c3cc4ccccc4cc23)nc1
inactive: [1] 100 % of control | [2] 110 % of control

Cc1ccc(SCc2cn(C3OC(CO)C(O)C3O)c(=O)[nH]c2=O)cc1 (centres undefined)
inactive: [4] 95 % of control and 102 % of control | [5] 95 % of control and 101 % of control | [6] 92 % of control and 95 % of control

N#Cc1ccccc1CC(O)(c1ccccc1)c1ccccc1
inactive: [7] 99 % of control | [8] 100 % of control | dose: 400.0 mg/kg/injection, schedule: Q01DX009 (ip), vehicle: saline with Tween-80 91 % of control

C[N+](C)(C)CCc1ccc2ccccc2c1
inactive: dose: 25.0 mg/kg/injection, schedule: Q04DX002 (ip), vehicle: saline + alcohol 96 % of control | dose: 50.0 mg/kg/injection, schedule: Q04DX002 (ip), vehicle: saline + alcohol 92 % of control | dose: 100.0 mg/kg/injection, schedule: Q04DX002 (ip), vehicle: saline + alcohol 106 % of control and 108 % of control

CC1OC(O[C@H]2/C=C/C=C/C=C/C=C/C=C/C=C/C=C/[C@H](C)[C@@H](O)[C@@H](C)[C@H](C)OC(=O)C[C@H](O)C[C@H](O)CC[C@@H](O)[C@H](O)C[C@H](O)C[C@]3(O)C[C@H](O)[C@@H](C(=O)O)[C@H](C2)O3)C(O)C(N)C1O (some centres undefined)
inactive: dose: 1.0 mg/kg/injection, schedule: Q01DX009 (ip), vehicle: saline 90 % of control and 95 % of control | dose: 2.0 mg/kg/injection, schedule: Q01DX009 (ip), vehicle: saline 119 % of control and 90 % of control | dose: 4.0 mg/kg/injection, schedule: Q01DX009 (ip), vehicle: saline 98 % of control and 102 % of control and 105 % of control | dose: 8.0 mg/kg/injection, schedule: Q01DX009 (ip), vehicle: saline 100 % of control and 106 % of control and 87 % of control | dose: 16.0 mg/kg/injection, schedule: Q01DX009 (ip), vehicle: saline 122 % of control and 94 % of control

CCOC(=O)/C(=C\c1cccc(OC)c1OC)CC(=O)O
inactive: dose: 25.0 mg/kg/injection, schedule: Q01DX009 (ip), vehicle: other 102 % of control | dose: 50.0 mg/kg/injection, schedule: Q01DX009 (ip), vehicle: other 107 % of control | dose: 100.0 mg/kg/injection, schedule: Q01DX009 (ip), vehicle: other 98 % of control | dose: 200.0 mg/kg/injection, schedule: Q01DX009 (ip), vehicle: other 112 % of control | dose: 400.0 mg/kg/injection, schedule: Q01DX009 (ip), vehicle: other 111 % of control
